Results published in patent publication US7189691B2, “Methods and compositions for treating leukemia” (The Administrators of the Tulane Educational Fund, priority 2004, dated 2007).
Entries after “also recorded” stand apart in the source; their conditions may differ.

Assays:
[1] = biological target: T1, MPc3 binding to AF9 (Homo sapiens, UniProt P42568); assay: GST pull-down assay, GST-MPc3(202-362) and biotinylated AF9; parameters: species or system murine; details: 25 μg/ml
T1 construct: made in house; host or cells: GST-MPc3 from E. coli; AF9 by coupled in vitro transcription/translation (Promega)
T1 sequence (P42568 211-568): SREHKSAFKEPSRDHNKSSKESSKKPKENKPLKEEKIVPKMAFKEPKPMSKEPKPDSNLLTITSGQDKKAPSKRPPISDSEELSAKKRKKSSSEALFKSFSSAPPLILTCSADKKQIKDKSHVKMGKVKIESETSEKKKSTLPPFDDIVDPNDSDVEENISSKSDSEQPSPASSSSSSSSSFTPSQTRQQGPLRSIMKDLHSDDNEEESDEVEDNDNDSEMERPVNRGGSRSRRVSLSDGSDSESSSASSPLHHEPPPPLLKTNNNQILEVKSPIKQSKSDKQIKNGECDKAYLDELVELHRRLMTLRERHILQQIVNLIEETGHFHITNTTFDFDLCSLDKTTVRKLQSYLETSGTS
Protocol: (§1) To determine if the synthetic peptide could disrupt the AF4-AF9 interaction in vitro, and to determine if the peptide disrupted other binding events with AF9, the following assay was performed. In additional to AF4, the carboxy-terminus of AF9 binds at least two other proteins, the Polycomb protein MPc3 and mBCoR, the mouse homolog of the human BCL-6 corepressor protein (Srinivasan 2003 and Hemenway 2001, both cited above). Using a yeast three hybrid assay similar to that described in Example 1, it was previously shown that mBCoR and FMR2 (an AF4 homolog) can simultaneously bind AF9. […] The sequences of human AF4 and AF9 and murine MPc3 and BCoR can be found in the NCBI database under Accession Nos. P51825, P42568, Q9QXV1, and AAN85318, respectively, incorporated by reference herein.
(§2) Recombinant proteins consisting of glutathione-S-transferase (GST) fused to either (a) amino acids 749–775 of human AF4 SEQ ID NO: 107, (b) amino acids 202–362 of MPc3 SEQ ID NO: 108 or (c) amino acids 925–1759 of mBCoR SEQ ID NO: 109 were isolated from E. coli. These fusion proteins were immobilized on 50 μl glutathione agarose matrix. […]
(§3) After extensive washing with TBST, proteins were resolved by SDS-PAGE and transferred to nitrocellulose. […] Alkaline phosphatase activity was measured by determining the optical density of the samples at 405 nm with a plate spectrophotometer. […]

[2] = tested on: RS4;11 leukemia cell line; assay: MTT viability assay and growth curve (Trypan Blue exclusion); type: cell-based; details: 100 μg/ml, 72 h
Protocol: (§4) All cell lines were maintained in RPMI 1640+10% FCS. 100 μl aliquots of cell suspension (5×10^5 cells/ml) were cultured in flat-bottomed 96 well plates in the presence of different concentrations of peptides. After 72 h incubation at 37° C. in humidified air containing 5% CO2, viable cell number was determined by MTT assay as follows: 10 μl of 3-[4,5-dimethylthiazol-2-yl]-2,5-diphenyl tetrazolium bromide (MTT) (5 mg/ml concentration) (Sigma) was added to each well and incubated further for 6 h. Formazan crystals that are formed during incubation were dissolved in 100 μl of acidified isopropanol. The optical density at 550 nm (which is linearly related to the number of viable cells) was measured using a plate spectrophotometer. Growth characteristics of the leukemia cell lines were also determined for cells by Trypan Blue exclusion.

[3] = biological target: T2, mBCoR binding to AF9 (Homo sapiens, UniProt P42568); assay: GST pull-down assay, GST-mBCoR(925-1759) and biotinylated AF9; parameters: species or system murine; details: 25 μg/ml
T2 construct: made in house; host or cells: GST-mBCoR from E. coli; AF9 by coupled in vitro transcription/translation (Promega)
T2 sequence (P42568 211-568): T1 sequence (P42568 211-568)
Protocol: as §1, §2, §3

[4] = tested on: Raji lymphoma cell line; assay: Proliferation test; type: cell-based; details: data not shown
[5] = tested on: B1 cells; assay: Annexin-V/PI binding assay (flow cytometry); type: cell-based; details: treated for 24 h
Protocol: To test the possibility that growth inhibition of t(4;11) leukemia cells exposed to PFWT is the result of apoptotic cell death, annexin-V labeling of the cell membrane of the leukemic cells examined in Example 5 was used to assess apoptosis as follows (Koopman, G., et al., Blood 1994 84: 1415–1420.). Annexin V binding assays were carried out using a Vibrant™ apoptosis kit (Molecular Probes). […] For annexin V-propidium iodide (PI) staining, cells were harvested, washed once with PBS and resuspended in 100 μl annexin binding buffer. 5 μl annexin V conjugated to Alexa Fluor 488 and 2 μl of 100 μg/ml PI were added to the cell suspension and incubated at room temperature for 15 minutes. The cells were then washed once in annexin binding buffer and resuspended in 400 μl annexin binding buffer. These samples were then analyzed by flow cytometry using Coulter benchtop flow cytometer. The cells were excited by a 488 nm wavelength laser beam and the emission was measured using a 530 nm filter for annexin V and a 575 nm filter for PI.

[6] = tested on: THP-1 leukemia cell line; assay: MTT viability assay; type: cell-based; details: 72 h, varying concentrations
Protocol: as §4

[7] = tested on: MOLT-4 T-cell leukemia line; assay: MTT viability assay; type: cell-based; details: 72 h, up to 200 μg/ml
Protocol: as §4

[8] = tested on: Reh B-precursor leukemia cell line; assay: MTT viability assay; type: cell-based; details: 72 h
Protocol: as §4

[9] = tested on: MV4-11 leukemia cell line; assay: MTT viability assay; type: cell-based; details: 72 h, differing concentrations
Protocol: as §4

[10] = tested on: B1 leukemia cell line; assay: MTT viability assay; type: cell-based; details: 72 h, differing concentrations
Protocol: as §4

[11] = tested on: NIH 373 cell line; assay: Proliferation test; type: cell-based; details: data not shown

For `CC[C@H](C)[C@H](NC(=O)[C@H](CCCCN)NC(=O)[C@@H](NC(=O)[C@H](Cc1c[nH]c2ccccc12)NC(=O)[C@H](CC(C)C)NC(=O)[C@H](CCCCN)NC(=O)[C@H](CCCCN)NC(=O)[C@H](Cc1c[nH]c2ccccc12)NC(=O)[C@H](CCCCN)NC(=O)[C@H](CCSC)NC(=O)[C@H](CCCNC(=N)N)NC(=O)[C@H](CCCNC(=N)N)NC(=O)[C@H](CC(N)=O)NC(=O)[C@H](CCC(N)=O)NC(=O)[C@H](Cc1ccccc1)NC(=O)[C@H](Cc1c[nH]c2ccccc12)NC(=O)[C@H](CCCCN)NC(=O)[C@@H](NC(=O)[C@H](CCC(N)=O)NC(=O)[C@@H](N)CCCNC(=N)N)[C@@H](C)CC)C(C)C)C(=O)N[C@@H](CC(=O)O)C(=O)N[C@@H](CC(C)C)C(=O)N[C@@H](CC(=O)O)C(=O)N[C@@H](CC(C)C)C(=O)N[C@@H](CC(C)C)C(=O)N[C@@H](CO)C(=O)N[C@@H](CCCNC(=N)N)C(=O)N[C@H](C(=O)N1CCC[C@H]1C(=O)O)C(C)C` [PFWT], the “displacement of MPc3 from AF9” value [1] was “not displaced”, the proliferation / viability [2] was “completely inhibits proliferation” and the “displacement of mBCoR from AF9” value [3] was “not displaced”. For the same compound, the proliferation [4] was “not affect the proliferation”, the “cells in early stages of apoptosis (Annexin-V binding, exclusion of PI)” value [5] was 45% and the “cells in later stages of apoptosis (positive for Annexin-V and PI)” value [5] was 35%. The cell viability [6] was “inhibited to a much lesser extent; also recorded: not significantly inhibited”, the cell viability [7] was “not affected” and the cell viability [8] was “inhibited”. The cell viability [9] was “diminished; also recorded: inhibits”, the cell viability [10] was “diminished; also recorded: inhibits” and the proliferation [11] was “not affect the proliferation”.
